Assay results reported in patent US12171230B2, “Herbicidal compositions” (Bayer Aktiengesellschaft, priority 2018, dated 2024).

What was measured:
Format in all cases: in vivo
[1] = test system: Panicum maximum; experiment: Post-emergence herbicidal action against Panicum maximum; conditions: g of a.i./ha: 200, 100, 100 + 200
Description: (§1) When the observed efficacies exceed the formal sum total of the values of the tests with individual applications, they also exceed the expected value according to Colby, which is calculated using the formula below and is likewise regarded as an indication of synergism (cf. S. R. Colby; in Weeds 15 (1967) p. 20 to 22): E^C=A+B−([…])
(§2) Here: • A=efficacy of the active compound (A) in % at an application rate of a g a.i./ha; • B=efficacy of the active compound (B) in % at an application rate of b g a.i./ha; • E^C=expected value of the effect of the combination (A)+(B) in % at the combined application rate a+b g a.i./ha.
(§3) Seeds or rhizome pieces of mono- and dicotyledonous weeds are placed in sandy loam in pots, covered with soil and grown in a greenhouse under good growth conditions (temperature, air humidity, water supply). Three weeks after sowing, the test plants were treated at the three-leaf stage with the compositions according to the invention. The compositions according to the invention formulated as spray powders or as emulsion concentrates were sprayed onto the green plant parts in various dosages with an application rate of 300 to 800 l/ha of water (equivalent). After the test plants have been left to stand in the greenhouse under optimal growth conditions for about 3 to 4 weeks, the action of the preparations is scored visually in comparison to untreated controls. The compositions according to the invention also have good post-emergence herbicidal activity against a broad spectrum of economically important gramineous and broadleaf weeds.

[2] = test system: Bidens pilosa; experiment: Post-emergence herbicidal action against Bidens pilosa; conditions: for Herbicidal action against Bidens pilosa: 21 DAT
Procedure, shortened: (§4)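 Greenhouse pot test, sandy loam; weeds from seed or rhizome. Post-emergence spray at three-leaf stage (3 wk after sowing), 300–800 l/ha water, various dosages. Visual % efficacy vs untreated at 3–4 wk; Colby expected value used to flag synergism.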

[3] = test system: Poa annua; experiment: Post-emergence herbicidal action against Poa annua
Procedure, shortened: as §4

[4] = test system: Chenopodium album; experiment: Post-emergence herbicidal action against Chenopodium album; conditions: g of a.i./ha: 180, 100, 100 + 180
Description: as §1, §2, §3

[5] = test system: Phalaris minor; experiment: Post-emergence herbicidal action against Phalaris minor
Procedure, shortened: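 Assessment time was recorded as days after application. Activity for mixtures was set against E^C, the Colby expected value, and against E^A, the total of the effects from each component applied alone; application rates were in g of active substance per hectare.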

[6] = test system: Abutilon theophrasti; experiment: Post-emergence herbicidal action against Abutilon theophrasti; conditions: g of a.i./ha: 90, 30, 15, 15 + 90, 15 + 30
Text: The following abbreviations are used in the description and the tables that follow: • g of a.i./ha=grams of active substance (active ingredient) (=100% active compound) per hectare; • The sum total of the effects of the individual applications is reported under E^A; • expected values according to Colby are each reported under E^C.
The rating period is reported in days after application (DAT).

SMILES: O=C(Nc1ccc(F)cc1F)c1cccnc1Oc1cccc(C(F)(F)F)c1 [(B2.18) Diflufenican]
- Herbicidal action 28 DAT against Panicum maximum [1]: 0%
- Herbicidal action against Bidens pilosa ([2]; 90 g of a.i./ha): 35%
- Herbicidal action against Bidens pilosa ([2]; 270 g of a.i./ha): 45%
- Herbicidal action 21 DAT against Bidens pilosa ([2]; post-emergence, g of a.i./ha: 90, 30, 15, 15 + 90, 15 + 30): 10%
- Herbicidal action 28 DAT against Poa annua L. ([3]; 30 g of a.i./ha): 0%
- Herbicidal action 28 DAT against Poa annua L. ([3]; 90 g of a.i./ha): 0%
- Herbicidal action 28 DAT against Poa annua L. ([3]; 270 g of a.i./ha): 0%
- Herbicidal action 14 DAT against Poa annua L. ([3]; (Z61) post-emergence, g of a.i./ha: 16, 1, 270, 90, 16 + 270, 16 + 90, 1 + 270, 1 + 90): 20%
- Herbicidal action 28 DAT against Poa annua L. ([3]; (Z119) post-emergence, g of a.i./ha: 16, 1, 270, 90, 30, 16 + 270, 16 + 90, 16 + 30, 1 + 270): 0%
- Herbicidal action 27 DAT against Chenopodium album [4]: 20%
- Herbicidal action 28 DAT against Phalaris minor ([5]; 30 g of a.i./ha): 0%
- Herbicidal action 28 DAT against Phalaris minor ([5]; 90 g of a.i./ha): 0%
- Herbicidal action 28 DAT against Phalaris minor ([5]; 270 g of a.i./ha): 5%
- Herbicidal action 28 DAT against Phalaris minor ([5]; (Z119) post-emergence, g of a.i./ha: 16, 4, 270, 90, 30, 16 + 270, 16 + 90, 16 + 30, 4 + 270, 4 + 30, 90 g of a.i./ha): 0%
- Herbicidal action 28 DAT against Phalaris minor ([5]; (Z119) post-emergence, g of a.i./ha: 16, 4, 270, 90, 30, 16 + 270, 16 + 90, 16 + 30, 4 + 270, 4 + 30, 270 g of a.i./ha): 5%
- Herbicidal action 14 DAT against Phalaris minor ([5]; (Z119) post-emergence, g of a.i./ha: 16, 4, 270, 90, 270, 16 + 270, 16 + 90, 4 + 270): 5%
- Herbicidal action 21 DAT against Abutilon theophrasti [6]: 10%
